From patent US20060148858A1, “1, 2-Azole derivatives with hypoglycemic and hypolipidemic activity” (priority 2002, published 2006) come the findings set out here.

SMILES strings stand for the structures.

This assay concerns KKAY mice. In words: Plasma anti-arteriosclerosis index-enhancing action in mice (Test Example 2). The format is in vivo. To be noted: Mus musculus, po, 96 h, 0.005% in powdery diet, four days, percent increase of (HDL cholesterol/total cholesterol)x100, non-treatment group taken as 100%.
As for `COc1ccc(CC(=O)O)cc1OCCCc1cn(-c2ccc(C(F)(F)F)cn2)nc1C1CCCCC1` [Example 304, [3-(3-{3-cyclohexyl-1-[5-(trifluoromethyl)-2-pyridinyl]-1H-pyrazol-4-yl}propoxy)-4-methoxyphenyl]acetic acid], the change in vivo at 0.005 % in diet was determined as 13%.

For the compound `CCC(CC)c1nn(-c2ccc(Cl)cn2)cc1CCCOc1c(CC(=O)O)cccc1OC` [Example 223, (2-{3-[1-(5-chloro-2-pyridyl)-3-(1-ethylpropyl)-1H-pyrazol-4-yl]propoxy}-3-methoxyphenyl)acetic acid], the change in vivo at 0.005 % in diet stood at 12%.

On to `Cc1cccc(CC(=O)O)c1OCCCc1cn(-c2ccc(C(F)(F)F)cn2)nc1C1CCCCC1` [Example 316, [2-(3-{3-cyclohexyl-1-[5-(trifluoromethyl)-2-pyridinyl]-1H-pyrazol-4-yl}propoxy)-3-methylphenyl]acetic acid], for which the change in vivo at 0.005 % in diet was 10%.

For the compound `CCC(CC)c1nn(-c2ccc(C(F)(F)F)nn2)cc1CCCOc1c(C)cccc1CC(=O)O` [Example 340, [2-(3-{3-(1-ethylpropyl)-1-[6-(trifluoromethyl)pyridazin-3-yl]-1H-pyrazol-4-yl}propoxy)-3-methylphenyl]acetic acid], the change in vivo at 0.005 % in diet stood at 21%.

Consider `CCOc1nn(-c2ccc(C(F)(F)F)cn2)cc1CCCOc1cccc(CC(=O)O)c1` [Example 30, [3-(3-{3-ethoxy-1-[5-(trifluoromethyl)-2-pyridyl]-1H-pyrazol-4-yl}propoxy)phenyl]acetic acid], for which the change in vivo at 0.005 % in diet turned out to be 19%.

On to `O=C(O)CCc1cc(OCCCc2cn(-c3ccc(C(F)(F)F)cn3)nc2C2CCCCC2)nn1-c1ccccc1` [Example 189, 3-[3-(3-{3-cyclohexyl-1-[5-(trifluoromethyl)-2-pyridyl]-1H-pyrazol-4-yl}propoxy)-1-phenyl-1H-pyrazol-5-yl]propionic acid], for which the change in vivo at 0.005 % in diet is 20%.

On to `CCOc1nn(-c2ccc(C(F)(F)F)cn2)cc1CCCOc1ccccc1CC(=O)O` [Example 31, (2-(3-{3-ethoxy-1-[5-(trifluoromethyl)-2-pyridyl]-1H-pyrazol-4-yl}propoxy)phenyl]acetic acid], for which the change in vivo at 0.005 % in diet turned out to be 16%.

Take `COc1cccc(CC(=O)O)c1OCCCc1cn(-c2ccc(C(F)(F)F)nn2)nc1C(C)C` [Example 274, [2-(3-{3-isopropyl-1-[6-(trifluoromethyl)pyridazin-3-yl]-1H-pyrazol-4-yl}propoxy)-3-methoxyphenyl]acetic acid]: the change in vivo at 0.005 % in diet came out at 11%.
